In data set [1] the test system is T. brucei brucei Lister 427. Put plainly: Trypanosome replication assay. The class given is cell-based, Trypanosoma brucei brucei. The note with it: Trypanosoma brucei, 48 h, concentration giving 50% inhibition of growth of T brucei brucei Lister 427 cells; 48 h; values ±7%; read-out: Tbb EC50.
Another data set deals with HepG2 cells. The data set can be described thus: HepG2 cell toxicity (MTT) assay. The class given is cell-based. The note with it: Table 13; read-out: HepG2 TC50.
In the next data set the test system is T. cruzi. The data set can be described thus: T. cruzi growth inhibition. The class given is cell-based, Trypanosoma cruzi. The conditions noted are these: Trypanosoma cruzi.
A further data set deals with L. major promastigote. The data set can be described thus: L. major promastigote assay. The conditions noted are these: Leishmania major. The format is cell-based.
The test system of another data set is L. major amastigote. Put plainly: L. major amastigote assay. The class given is cell-based. The conditions noted are these: Leishmania major.
A further data set concerns P. fal. The data set can be described thus: P. fal assay of Table 13 (strain not given). The format is cell-based, P. falciparum. The note with it: Plasmodium falciparum.

As a reminder, the EC50 is the concentration needed to bring the measured effect to its halfway point.

On to `CN1CCCN(S(=O)(=O)c2ccc(-c3ccc4nccc(Nc5ccc(OCc6cccc(F)c6)c(Cl)c5)c4c3)cc2)CC1` [NEU-958, N-(3-Chloro-4-((3-fluorobenzyl)oxy)phenyl)-6-(4-((4-methyl-1,4-diazepan-1-yl)sulfonyl)phenyl)quinolin-4-amine], for which the EC50 amounted to 140 nM in data set [1]; 930 nM in the data set with T. cruzi; 400 nM in the data set on L. major promastigote; 2300 nM with L. major amastigote; 86 nM with P. fal. For the same compound, the CC50 in the data set on HepG2 cells came to 4300 nM.

For `Fc1cccc(COc2ccc(Nc3ccnc4ccc(-c5cccc(N6CCOCC6)c5)cc34)cc2Cl)c1` [NEU-959, N-(3-Chloro-4-((3-fluorobenzyl)oxy)phenyl)-6-(3-morpholinophenyl)quinolin-4-amine], the EC50 in data set [1] is 1000 nM; in the data set with T. cruzi, 6600 nM; in the data set on L. major promastigote, 900 nM; in the data set on L. major amastigote, 4000 nM; in the data set with P. fal it was 35 nM. Besides, the CC50 in the data set with HepG2 cells is 10000 nM.

Regarding `CN1CCN(S(=O)(=O)c2ccc(-c3ccc4nccc(Nc5ccc(OCc6cccc(F)c6)c(Cl)c5)c4c3)cc2)CC1` [NEU-960, N-(3-Chloro-4-((3-fluorobenzyl)oxy)phenyl)-6-(4-((4-methylpiperazin-1-yl)sulfonyl)phenyl)quinolin-4-amine], the EC50 came out at 460 nM in data set [1]; 5300 nM in the data set on T. cruzi; 600 nM in the data set with L. major promastigote; 2000 nM with L. major amastigote; 16000 nM in the data set on P. fal. Besides, the CC50 with HepG2 cells worked out at 6400 nM.

As to `O=S(=O)(c1ccc(-c2ccc3nncc(Nc4ccc(OCc5ccccc5)c(Cl)c4)c3c2)cc1)N1CCOCC1` [NEU-1002, N-(4-(Benzyloxy)-3-chlorophenyl)-6-(4-(morpholinosulfonyl)phenyl)cinnolin-4-amine], the EC50 was 1200 nM in data set [1]; above 50000 nM with T. cruzi; above 15000 nM with L. major promastigote; above 15000 nM in the data set on L. major amastigote; 820 nM in the data set with P. fal. Besides, the CC50 with HepG2 cells was above 15000 nM.

For `Fc1cccc(COc2ccc(Nc3cnnc4ccc(-c5cccc(N6CCOCC6)c5)cc34)cc2Cl)c1` [NEU-1012, N-(3-Chloro-4-((3-fluorobenzyl)oxy)phenyl)-6-(3-morpholinophenyl)cinnolin-4-amine], the EC50 in data set [1] is 1100 nM; in the data set with T. cruzi, above 50000 nM; in the data set on L. major promastigote it was above 15000 nM; in the data set with L. major amastigote it was above 15000 nM; in the data set on P. fal, 540 nM. For the same compound, the CC50 with HepG2 cells is above 15000 nM.

On to `CN1CCCN(S(=O)(=O)c2ccc(-c3ccc4nncc(Nc5ccc(OCc6cccc(F)c6)c(Cl)c5)c4c3)cc2)CC1` [NEU-1013, N-(3-Chloro-4-((3-fluorobenzyl)oxy)phenyl)-6-(4-((4-methyl-1,4-diazepan-1-yl)sulfonyl)phenyl)cinnolin-4-amine], for which the EC50 in data set [1] is 580 nM; in the data set on T. cruzi it was 2200 nM; in the data set with L. major promastigote, 4100 nM; in the data set with L. major amastigote, 1060 nM; in the data set on P. fal it was 27 nM. The CC50 in the data set with HepG2 cells stood at 7300 nM.

Regarding `Fc1cccc(COc2ccc(Nc3cnnc4cc(-c5cccc(N6CCOCC6)c5)ccc34)cc2Cl)c1` [NEU-1014, N-(3-Chloro-4-((3-fluorobenzyl)oxy)phenyl)-7-(3-morpholinophenyl)cinnolin-4-amine], the EC50 in data set [1] was 890 nM; in the data set on T. cruzi it was 45000 nM; in the data set on L. major promastigote it was 9800 nM; in the data set on L. major amastigote it was above 15000 nM; in the data set with P. fal, 200 nM. Moreover, the CC50 with HepG2 cells turned out to be 11000 nM.

Consider `O=S(=O)(c1ccc(-c2ccc3c(Nc4ccc(OCc5ccccc5)c(Cl)c4)cnnc3c2)cc1)N1CCOCC1` [NEU-1015, N-(4-(Benzyloxy)-3-chlorophenyl)-7-(4-(morpholinosulfonyl)phenyl)cinnolin-4-amine], for which the EC50 in data set [1] is 1200 nM; in the data set on T. cruzi, 15000 nM; in the data set on L. major promastigote, above 15000 nM; with L. major amastigote, above 15000 nM; in the data set on P. fal it was 150 nM. Further, in the data set on HepG2 cells, the CC50 is above 11000 nM.

Source of the values: US20150259331A1, “PROTOZOAN PARASITE GROWTH INHIBITORS” (Northeastern University, priority 2014, published 2015).
